Values quoted from earlier work in patent publication US20230364244A1, “DENDRIMER COMPOSITIONS AND METHODS FOR DRUG DELIVERY TO INJURED KIDNEY” (Ashvattha Therapeutics, Inc., priority 2020, published 2023).

Target: T1, PPAR-δ (Homo sapiens, UniProt Q03181)
T1 construct: host or cells: human mesenchymal stem cells (endogenous receptor)
T1 sequence (Q03181 1-441): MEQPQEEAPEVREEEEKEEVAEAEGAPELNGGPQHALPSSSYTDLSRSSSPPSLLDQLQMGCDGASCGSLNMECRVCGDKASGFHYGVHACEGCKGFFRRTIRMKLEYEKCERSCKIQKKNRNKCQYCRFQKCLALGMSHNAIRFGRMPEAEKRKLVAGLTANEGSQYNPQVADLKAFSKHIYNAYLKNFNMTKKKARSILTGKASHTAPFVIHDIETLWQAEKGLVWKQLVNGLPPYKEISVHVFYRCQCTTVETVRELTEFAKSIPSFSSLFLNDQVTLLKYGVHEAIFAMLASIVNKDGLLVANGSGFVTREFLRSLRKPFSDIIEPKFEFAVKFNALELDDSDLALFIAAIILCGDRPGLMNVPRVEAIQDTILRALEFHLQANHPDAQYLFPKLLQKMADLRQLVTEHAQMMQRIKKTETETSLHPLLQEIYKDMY
Conditions: co-culture; inhibition of PPAR-δ in MSCs

Structure (SMILES): O=C(NCCS(=O)(=O)c1ccc(C(F)(F)F)cn1)c1ccc(Cl)cc1 [GSK3787]
- ability of human MSCs to limit proliferation of peripheral blood mononuclear cells: enhanced their ability to limit proliferation of peripheral blood mononuclear cells
